Experimental data: the supplement of paper PMC10331698
± gives the standard deviation of the averaged measurements.

Key:
Assay in all cases: LOEC (log10 uM (lowest observed effect concentration))
[1] = compound: CC(C)(C)C(=O)CC(=O)C(F)(F)C(F)(F)C(F)(F)F [(Heptafluorobutanoyl)pivaloylmethane]
Procedure: (§1)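 BioMAP Diversity Plus panel in human primary cell co-cultures, 4 concentrations in duplicate blinded samples. Responses are log10 fold change versus DMSO control, processed with tcpl v2.1.0. A hit is called when responses at any concentration exceed the cutoff (the larger of 3*bmad or log10(1.2)); the lowest observed effect concentration (modl_ga, log10 uM) is reported for hits.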

[2] = compound: O=C(O)C(F)(F)C(F)(F)C(F)(F)C(F)(F)C(F)(F)C(F)(F)C(F)(F)C(F)(F)Cl [9-Chloro-perfluorononanoic acid]
Procedure: as §1

Perfluorooctanamide = compound: NC(=O)C(F)(F)C(F)(F)C(F)(F)C(F)(F)C(F)(F)C(F)(F)C(F)(F)F [Perfluorooctanamide]
Procedure: as §1

[3] = compound: O=P(O)(O)CCC(F)(F)C(F)(F)C(F)(F)C(F)(F)C(F)(F)C(F)(F)C(F)(F)C(F)(F)F [((Perfluorooctyl)ethyl)phosphonic acid]
Procedure: as §1

[4] = compound: O=S(=O)(O)C(F)(F)C(F)(F)C(F)(F)C(F)(F)C(F)(F)C(F)(F)C(F)(F)C(F)(F)F [Perfluorooctanesulfonic acid]
Procedure: as §1

[5] = compound: O=C(O)C(F)(F)OC(F)(F)C(F)(F)OC(F)(F)C(F)(F)C(F)(F)C(F)(F)F [Perfluoro-3,6-dioxadecanoic acid]
Procedure: as §1

[6] = compound: O=S(=O)(O)C(F)(F)C(F)(F)C(F)(F)C(F)(F)C(F)(F)C(F)(F)C(F)(F)C(F)(F)F [Potassium perfluorooctanesulfonate]
Procedure: as §1

Azathioprine = compound: Cn1cnc([N+](=O)[O-])c1Sc1ncnc2[nH]cnc12 [Azathioprine]
Procedure: as §1

[7] = compound: O=C(O)CCC(F)(F)C(F)(F)C(F)(F)C(F)(F)C(F)(F)F [2H,2H,3H,3H-Perfluorooctanoic acid]
Procedure: as §1

[8] = compound: O=C(O)C(F)(F)C(F)(F)C(F)(F)C(F)(F)C(F)(F)C(F)(F)C(F)(F)C(F)(F)C(F)(F)C(F)(F)C(F)(F)C(F)(F)F [Perfluorotridecanoic acid]
Procedure: as §1

[9] = compound: O=C(O)C(F)(F)C(F)(F)C(F)(F)C(F)(F)C(F)(F)C(F)(F)C(F)(F)C(F)(F)C(F)(F)C(F)(F)C(F)(F)C(F)(F)C(F)(F)F [Perfluorotetradecanoic acid]
Procedure: as §1

[10] = compound: C=CC(=O)OCCC(F)(F)C(F)(F)C(F)(F)C(F)(F)F [2-(Perfluorobutyl)ethyl acrylate]
Procedure: as §1

[11] = compound: CNS(=O)(=O)C(F)(F)C(F)(F)C(F)(F)C(F)(F)C(F)(F)C(F)(F)C(F)(F)C(F)(F)F [N-Methylperfluorooctanesulfonamide]
Procedure: as §1

Perfluorooctanamidine = compound: N=C(N)C(F)(F)C(F)(F)C(F)(F)C(F)(F)C(F)(F)C(F)(F)C(F)(F)F [Perfluorooctanamidine]
Procedure: as §1

[12] = compound: O=S(=O)(O)C(F)(F)C(F)(F)C(F)(F)C(F)(F)F [Perfluorobutanesulfonic acid]
Procedure: as §1

[13] = compound: FC(F)(F)C(F)(F)C(F)(F)C(F)(F)C(F)(F)C(F)(F)C(F)(F)CCI [1-Iodo-1H,1H,2H,2H-perfluorononane]
Procedure: as §1

3C Thrombomodulin up
LOEC (log10 uM) [1]: 1.78
LOEC (log10 uM) [2]: 1.78

KF3CT MMP9 down
LOEC (log10 uM) (Perfluorooctanamide): 1.78
LOEC (log10 uM) [2]: 1.3

LPS PGE2 up
LOEC (log10 uM) [1]: 1.78
LOEC (log10 uM) [3]: 1.78

IMphg IL10 down
LOEC (log10 uM) [4]: 1.78
LOEC (log10 uM) [3]: 1.78
LOEC (log10 uM) [5]: 1.78
LOEC (log10 uM) [2]: 1.78
LOEC (log10 uM) [6]: 1.78
LOEC (log10 uM) (Azathioprine): 1.48
LOEC (log10 uM) [7]: 1.78

3C Proliferation down
LOEC (log10 uM) [8]: 1.22 ± 0.37
LOEC (log10 uM) [1]: 1.78
LOEC (log10 uM) [3]: 0.801 ± 0.71
LOEC (log10 uM) [5]: 1.04 ± 1
LOEC (log10 uM) [2]: 1.78
LOEC (log10 uM) (Azathioprine): 1.48
LOEC (log10 uM) [9]: -0.199 ± 0.71
LOEC (log10 uM) [10]: 1.78
LOEC (log10 uM) [11]: 1.54 ± 0.34
LOEC (log10 uM) (Perfluorooctanamidine): 1.78

IMphg IL8 up
LOEC (log10 uM) [12]: 1.78

hDFCGF Proliferation down
LOEC (log10 uM) [8]: 0.477
LOEC (log10 uM) [3]: 1.78
LOEC (log10 uM) [2]: 1.78
LOEC (log10 uM) [6]: 1.78
LOEC (log10 uM) (Azathioprine): 1.48
LOEC (log10 uM) [10]: 1.54 ± 0.34
LOEC (log10 uM) [13]: 0.301
LOEC (log10 uM) (Perfluorooctanamidine): 1.78
